Laboratory results published in patent US8404434B2, “Method for determining degree of negative effect of macrophages on vertebrate” (Yamasa Corporation, priority 2006, dated 2013).

How the values were obtained:
Peritoneal macrophages [1] = experiment: Diacetylspermine production by cultured macrophages with the uncoupler DNP; format: cell-based, mice; conditions: DNP 100 μM in medium, glucose 2 g/L, spermine 10 μM, cultured for two days; level in medium
Procedure: (§1) Peritoneal macrophages collected from mice injected with thioglycollate were inoculated into a 96-well microplate (1.25×10^5 cells/well), followed by culturing. In this case, cell culture was performed by use of RPMI 1640 medium containing 10% horse serum, the medium being supplemented with spermine (i.e., a raw material of diacetylpolyamine) (10 μM) and glucose (0, 1, or 2 g/L).
(§2) After completion of culturing, the levels of diacetylspermine and residual glucose contained in the medium were measured through a customary method. As is clear from FIG. 1, diacetylspermine is produced in response to depletion of glucose.
Dinitrophenol (DNP), which is a reagent called “uncoupler” that forcibly reduces the active potential of mitochondria, is added to a medium in an amount of 100 μM, followed by culturing for two days in a manner similar to that described above. After completion of culturing, diacetylspermine level was measured. The medium was supplemented with glucose in an amount of 2 g/L.

Peritoneal macrophages [2] = experiment: Diacetylspermine production by cultured macrophages with the tricarboxylate carrier inhibitor BTA; format: cell-based, mice
Procedure: as §1, §2
In order to examine the origin of acetyl CoA (i.e., a raw material of diacetylpolyamine), 1,2,3-benzyltricarboxylate (BTA), which is an inhibitor of a tricarboxylate carrier used for transportation of citrate from mitochondria to the cytoplasm, was added in an amount of 10 mM to a medium supplemented with no glucose, followed by measurement of diacetylspermine level.

Row | SMILES | Diacetylspermine (Peritoneal macrophages [1]) [nM] | Diacetylspermine (Peritoneal macrophages [2]; BTA 10 mM in medium supplemented with no glucose, level in medium) [nM] | production of diacetylspermine (Peritoneal macrophages [2]; BTA 10 mM, medium without glucose, result in words)
1 | O=[N+]([O-])c1ccc(O)c([N+](=O)[O-])c1 [DNP, Dinitrophenol] | 61.8 |  | 
2 | O=C(O)c1cccc(C(=O)O)c1C(=O)O [BTA, 1,2,3-benzyltricarboxylate] |  | 43.0 | inhibited
